From patent US9562085B2, “Antimicrobial peptide” (priority 2013, dated 2017)

What was measured:
[1] = system: MRSA LUH14616; assay: In vitro killing assay on mid-log phase bacteria, MRSA LUH14616; assay type: cell-based, Staphylococcus aureus; settings: for killing of MRSA LUH14616, in words: comparison among peptides tested, FIGS. 2-3
Text: (§1) The clinical isolate of methicillin-resistant Staphylococcus aureus (MRSA), LUH14616 was kindly provided by Dr. S. Croes, Maastricht University Medical Center, Maastricht, Netherlands (see S.B.M.C. Croes, Microbiol. 2009; 9:229. doi: 10.1186/1471-2180-9-229) and that of mupirocine-resistant MRSA LUH15051 was a gift from Dr. M.E.O.C. Heck (Laboratory for Infectious Diseases and Screening, National Institute for Public Health and Environment, RIVM, Bilthoven, Netherlands).
(§2) Bacteria were stored at -80° C. until use. Inoculi of mid-log phase bacteria were prepared by incubating isolated MRSA colonies from blood agar plates in Tryptic Soy Broth (TSB) medium (Becton Dickinson, Le Pont de Clax, France) for 2.5 hours and then diluted to the concentration needed.
(§3) For the in vitro killing assay on mid-log phase bacteria, MRSA LUH14616 and MRSA LUH15051 were resuspended to a concentration of 1×10^6 bacteria/ml in PBS. Subsequently, 200 μl was added to a concentration range of peptides LL-37, P60.4Ac (OP-145) and P10 that were lyophilized in advance. Subsequently, the bacteria-peptide mixture was incubated for 1 hour at 37° C. To establish the killing capacity of these peptides, the suspensions were serially diluted and plated onto DST agar plates to measure viable CFU counts. IC90, IC99 and IC99.9 values are calculated by linear regression analysis.

[2] = system: (fluconazole-resistant) Candida albicans; assay: Activity against Candida albicans; assay type: cell-based
[3] = system: lipoteichoic acid (LTA), peptidoglycan (PG) and lipopolysaccharides (LPS); assay: Endotoxin neutralization
Text: The term “anti-inflammatory activity” of a polypeptide as used herein refers to inhibiting, reducing or preventing an inflammatory response in a subject that has been infected by microbes, e.g., bacteria, viruses, fungi, and/or parasites. Anti-inflammatory activity of polypeptides of the disclosure is achieved by inhibiting, reducing or preventing the release of pro-inflammatory microbial compounds, such as lipoteichoic acid (LTA), peptidoglycan (PG) and/or lipopolysaccharides (LPS). Anti-inflammatory activity can be measured by methods known in the art. One example of such method is a lipopolysaccharide neutralization assay. In this method, a polypeptide of the disclosure is mixed with 1 mg of lipopolysaccharides and incubated for 60 minutes. Thereafter, these mixtures were added to 4 times diluted fresh human blood and 18 hours thereafter, the level of cytokines (1L-8, 1L-12p40) in the blood sample are measured by ELISA.

[4] = system: Aspergillus niger; assay: Activity against Aspergillus niger; assay type: cell-based
[5] = system: methicillin-resistant S. aureus biofilm; assay: Prevention of MRSA biofilm formation; assay type: cell-based; settings: on plastic as well as biotic (wounded 3-D human skin model) surfaces
[6] = system: MRSA LUH15051; assay: Burn wound infection model, thermally wounded human skin equivalents, mupirocin-resistant MRSA LUH15051; assay type: cell-based, Staphylococcus aureus; settings: compared with LL-37 and P60.4Ac, FIG. 5
Experimental: (§4) Human skin equivalents were prepared as described in El Ghalbzouri et al. (Lab. Invest. 2004 January; 84(1):102-12). In brief, 5×10^5 normal human keratinocytes were seeded onto fibroblast-populated rat-tail collagen matrices. The collagen matrices were prepared in advance by making a basal (0.1% acetic acid, 4 mg/ml collagen, Hank's Balanced Salt Solution (HBSS, 10×), 1 M NaOH and FCS) and a top collagen layer in which normal human fibroblasts were seeded (4 mg/ml collagen, 10×HBSS, 1 M NaOH, FCS and fibroblasts). Transwell filters with 3 μm pore size (Corning 3414, Costar) were used to culture the human skin equivalents. The collagen matrices were cultured in fibroblast medium for a week. The full thickness human skin equivalents were first cultured submerged in keratinocyte medium for 2 or 3 days at 37° C. and 7.3% CO2 and were then cultured in keratinocyte medium as described above, but with 1% FCS and supplemented with […] L-serine, 10 mM L-carnitine, 1 μM DL-α-tocopherol-acetate, 50 μM ascorbic acid, a lipid supplement that contained palmitic acid, linoleic acid and arachidonic acid in a 1:1:1 ratio and 2.4×10^−5 M bovine serum albumin. […]

[7] = system: S. aureus JAR; assay type: cell-based; settings: JAR, 2 h
Experimental: S. aureus JAR is described in Campoccia et al. (Int. J. Artif. Organs, 2008 September; 31(9):841-7).
For the in vitro killing assay with P10 variants, S. aureus JAR ([…] CFU/ml) were incubated for 2 hours at 37° C. with various concentrations of the peptides in PBS or in PBS/human plasma (1/1, v/v). […] The LC99.9 is the average value of two independent experiments.

[8] = system: mycobacteria; assay: Activity against mycobacteria; assay type: cell-based
[9] = system: (drug-resistant) Pseudomonas aeruginosa strains; assay: Activity against Pseudomonas aeruginosa; assay type: cell-based; settings: various (drug-resistant) strains
[10] = system: MRSA LUH14616; assay: Burn wound infection model, thermally wounded human skin equivalents, MRSA LUH14616; assay type: cell-based, Staphylococcus aureus; settings: compared with LL-37 and P60.4Ac, FIG. 4
Experimental: as §4

[11] = system: (drug-resistant) Acinetobacter baumannii strains; assay: Activity against Acinetobacter baumannii; assay type: cell-based
[12] = system: Staphylococcus epidermidis; assay: Activity against Staphylococcus epidermidis; assay type: cell-based
[13] = system: MRSA LUH15051; assay: In vitro killing assay on mid-log phase bacteria, mupirocine-resistant MRSA LUH15051; assay type: cell-based, Staphylococcus aureus; settings: compared with LL-37 and P60.4Ac
Text: as §1, §2, §3

Row | Substance | LC99.9 (μM) (50% plasma) [7] [µM] | LC99.9 (μM) (PBS) [7] [µM] | also measured
1 | Ac-IGKEFKRIVERIKRFLRELVRPLR-NH2 (N-terminus and C-terminus assumed) [Peptide P60.4Ac, reference compound] | – | – | IC90 ([1]; MRSA LUH14616 in PBS, 1 hour at 37° C., 90% Inhibitory Concentration, linear regression): 750 nM
2 | Ac-LAREYKKIVEKLKRWLRQVLRTLR-NH2 (N-terminus and C-terminus assumed) [Peptide P10] | 102.4 | 1.6 | effectiveness against Candida albicans [2]: highly effective; neutralization of endotoxin LTA, PG and LPS [3]: neutralizes; effectiveness against Aspergillus niger [4]: highly effective; prevention of MRSA biofilm formation [5]: able to prevent; activity compared with P60.4Ac ([1]; MRSA LUH14616, surviving bacteria at similar concentration): approximately 100 times; IC99.9 ([1]; MRSA LUH14616 in PBS, 1 hour at 37° C., 99.9% Inhibitory Concentration, linear regression): 0.59 µM; effectiveness against MRSA bacteria in log phase, stationary bacteria and bacteria residing in biofilms ([1]; MRSA, strain not stated): highly effective; killing of MRSA LUH14616, in words [1]: highest activity; killing of MRSA LUH14616, in words ([1]; listed as Peptide 10): more effective than LL-37 and P60.4Ac; eliminating mupirocine-resistant MRSA from thermally wounded human skin equivalents, in words [6]: more effective than LL-37 and P60.4Ac; effectiveness against mycobacteria [8]: highly effective; effectiveness against Pseudomonas aeruginosa [9]: highly effective; eliminating MRSA from thermally wounded human skin equivalents, in words [10]: more effective than LL-37 and P60.4Ac; effectiveness against Acinetobacter baumannii [11]: highly effective; effectiveness against Staphylococcus epidermidis [12]: highly effective; killing of mupirocine-resistant MRSA, in words [13]: more effective than LL-37 and P60.4Ac
3 | Ac-LAREYKPIVEKLKRWPRQVLRTLR-NH2 [Peptide 1302-13, JLAREYKPIVEKLKRWPRQVLRTLRB] | >102.4 | >3.2 | –
4 | Ac-LAREYKRIVEKLKRWLRQVLRTLR-NH2 [Peptide 1302-29, JLAREYKRIVEKLKRWLRQVLRTLRB] | 102.4 | 1.6 | –
5 | Ac-LAREYPKIVEKLKRWLRPVLRTLR-NH2 [Peptide 1302-14, JLAREYPKIVEKLKRWLRPVLRTLRB] | 102.4 | 3.2 | –
6 | Ac-LAREYRKIVEKLKRWLRQVLRTLR-NH2 [Peptide 1302-27, JLAREYRKIVEKLKRWLRQVLRTLRB] | 76.8 | 0.8 | –
7 | Ac-LARQYKKIVEKLKRWLRQVLRTLR-NH2 [Peptide 1302-25, JLARQYKKIVEKLKRWLRQVLRTLRB] | 51.2 | 1.2 | –
8 | Ac-LLREYKKIVEKLKRWLRQVLRTLR-NH2 [Peptide 1302-20, JLLREYKKIVEKLKRWLRQVLRTLRB] | 102.4 | 1.6 | –
9 | Ac-LQREYKKIVEKLKRWLRQVLRTLR-NH2 [Peptide 1302-22, JLQREYKKIVEKLKRWLRQVLRTLRB] | 76.8 | 1.6 | –
10 | Ac-LVREYKKIVEKLKRWLRQVLRTLR-NH2 [Peptide 1302-21, JLVREYKKIVEKLKRWLRQVLRTLRB] | 76.8 | 1.2 | –
11 | Ac-REYKKIVEKLKRWLRQVLRT-NH2 [Peptide 1302-58, JREYKKIVEKLKRWLRQVLRTB] | 76.8 | 1.6 | –
12 | Ac-REYKKIVEKLKRWLRQVLRTLR-NH2 [Peptide 1302-56, JREYKKIVEKLKRWLRQVLRTLRB] | 51.2 | 1.6 | –
13 | Ac-VAREYKKIVEKLKRWLRQVLRTLR-NH2 [Peptide 1302-18, JVAREYKKIVEKLKRWLRQVLRTLRB] | 76.8 | 1.6 | –
14 | Ac-YKKIVEKLKRWLRQVL-NH2 [Peptide 1302-62, JYKKIVEKLKRWLRQVLB] | 76.8 | 1.6 | –
15 | Ac-YKKIVEKLKRWLRQVLRTLR-NH2 [Peptide 1302-59, JYKKIVEKLKRWLRQVLRTLRB] | 51.2 | 1.6 | –
